Several values for one entry are separate records, joined by “and”; a condition that tells them apart may be missing. Equal values may be shown once. Entries after “also recorded” stand apart in the source; their conditions may differ. Read-outs that look alike come from different tables or passages of the source.

The test system of data set [1] is SARS-CoV-2. Particulars: MRC5 cells; cited from earlier work.
Another data set concerns uninfected cells. The experiment in a line: Cytotoxicity in uninfected cells, Sigma TOX7 LDH release. The data set is classed as cell-based. The note with it: any concentration. The procedure: For each assay, percent inhibition was calculated by comparing luciferase activity in cells treated with compound to that in cells treated with vehicle (DMSO) control. Cells were treated with 2.5 μM remdesivir as a control where indicated. Cytotoxicity was measured in uninfected cells in parallel assays using the Sigma TOX7 assay for LDH release.

In another data set the test system is WIV1. The experiment in a line: microbe, parasite or virus in culture. It is filed as cell-based, bat-derived SARS-like coronavirus. The note with it: HAE cells.
Another data set can be described thus: in vivo. The note with it: female, BALB/c, mouse, 5 mg.
The nature of another data set: Oral GLP toxicology. Particulars: rats/dogs.
The nature of data set [2]: Cytotoxicity, neutral red, Caco2 cells. The data set is classed as cell-based. Particulars: human, read-out: CC50: 50% cytotoxic concentration of compound without virus added. How it is done:
Virus yield reduction assay in Caco-2 cells: The virus yield reduction (VYR) assay set up was similar to that described for the neutral red assay excepting Caco2 cells were used. On day 3 post-infection, cell culture supernatant from wells was collected and infectious virus determined by running a standard endpoint dilution CCID50 assay. Compound dilution that reduced virus yield by 1 log10 was calculated. After collection of cell culture supernatant from wells on day 3 post-infection, plates were stained as described in the neutral red assay to determine CC50 in Caco2 cells.

The test system of data set [3] is SARS-CoV-2 (USA-WA1/2020). Kind of data set: Neutral red CPE assay in Vero E6 cells. The data set is classed as cell-based. Particulars: for EC50: Severe acute respiratory syndrome coronavirus 2, Vero C1008, 72 h, read-out: EC50: 50% effective antiviral concentration.
Data set [4] has as its system SARS-CoV-2. The experiment in a line: hACE2 transgenic mouse model of SARS-CoV-2 disease. It is filed as in vivo, human ACE2 transgenic mouse. Particulars: 50 mg/kg once per day intraperitoneal, Day 5.
The nature of data set [5]: Healthy volunteer Phase 1 study of oral Compound 1. The note with it: healthy volunteers.
The conditions of data set [6]: individual animals; for Plasma Compound 1 Concentration: 5 mg delivered dose, aerosol, single dose.
The nature of data set [7]: Tolerability of single inhaled aerosol dose in healthy BALB/c mice. It is filed as in vivo. Particulars: 5 mg aerosol single dose; dosing period and 8-hour post-dose period. The procedure:
Tolerability and pharmacokinetics (PK) of a single dose of Compound 1 delivered as aerosol via nebulized liquid in a flow-past pie-chamber model to healthy BALB/c mice. Compound 1 and Compound 60 concentrations were evaluated in plasma and lung tissue were determined.
Nine female, 9-11 week old BALB/c mice were housed in 9 individual wedges of the inhalation device described above. The input holes of the remaining 3 wedges were taped off to maximize delivery to the 9 mice. A liquid formulation of 5 mg/mL Compound 1 (pH 6.0) was prepared immediately prior to dosing and dispensed into the compressor chamber. The entire contents (9 mL) of the formulation solution were aerosolized and delivered to the 9 mice over a period of 20-30 min. This method delivered 5 mg Compound 1 to each wedge containing a single mouse over the period of nebulization.
Mice were monitored for adverse clinical signs with special attention given to signs related to eye irritation.

Data set [8] concerns Murine hepatitis virus (MHV) strain MHV-A59 (nLuc reporter). The experiment in a line: microbe, parasite or virus in culture. It is filed as cell-based. The note with it: Murine coronavirus.
Data set [9] is described as follows: Genotoxicity / mitotoxicity.
The subject of the next data set is SHC014. The experiment in a line: microbe, parasite or virus in culture. The data set is classed as cell-based, bat-derived SARS-like coronavirus. The note with it: HAE cells.
Data set [10] concerns SARS-CoV-2 (USA-WA1/2020). The experiment in a line: microbe, parasite or virus in culture. It is filed as cell-based. The note with it: Severe acute respiratory syndrome coronavirus 2, Caco-2, 72 h, read-out: EC90: Calculated concentration to reduce virus yield by 1 log (90%) (converted).
Data set [11] is described as follows: Cytotoxicity without virus, neutral red, Vero E6 cells. The data set is classed as cell-based. The note with it: African green monkey; Neutral Red in Vero E6 cells; read-out: CC50: 50% cytotoxic concentration of compound without virus added. The procedure:
Neutral red assay in Vero E6 cells: Compound dilutions were added to 96-well plates containing 80-100% confluent Vero E6 cells. Cells were incubated with compound for 1-2 hours and then infected with virus at a low MOI to achieve >80% cytopathic effect (CPE) within 5 days of incubation. On day 3 post-infection, CPE was quantitated by neutral red staining. Briefly cells were stained with neutral red for 2 hours, dye removed, and wells rinsed with PBS. The incorporated dye was extracted in Sorensen citrate buffer/ethanol (50:50) and absorbance measured on a spectrophotometer at 540 nm. Compound dilution that reduced virus CPE by 50% (EC50) was calculated along with cytotoxicity in the absence of virus infection (CC50).

In data set [12] the test system is SARS-CoV-2 strain USA-WA1 2020 (nLuc reporter). Kind of data set: microbe, parasite or virus in culture. It is filed as cell-based.
The mark [13] stands for this setting: Severe acute respiratory syndrome-related coronavirus, HAE.
The mark [14] stands for this setting: Mean Plasma Compound 1 Concentration.
The mark [15] stands for this setting: Plasma Compound 1 Concentration.
Where [16] appears, read: 5 mg Compound 1 aerosol, 1 hr post-dose.
[17] abbreviates: 5 mg Compound 1 aerosol, 3 hr post-dose.

For the compound `CNc1nc(N)nc2c1ncn2[C@@H]1O[C@H](COP(=O)(N[C@@H](C)C(=O)OC(C)C)Oc2ccccc2)[C@@H](O)[C@@]1(C)F.CNc1nc(N)nc2c1ncn2[C@@H]1O[C@H](COP(=O)(N[C@@H](C)C(=O)OC(C)C)Oc2ccccc2)[C@@H](O)[C@@]1(C)F.O=S(=O)(O)O` (stereo partly shown) [AT-527], in the data set on SARS-CoV-2 [1], the “antiviral activity against SARS-CoV-2” value was “lack of antiviral activity against SARS-CoV-2”.

Consider `Cc1nc(N)c2c(C(N)=O)cn([C@@H]3O[C@H](CO)[C@@H](O)[C@H]3O)c2n1` [Compound 1, 4-amino-7-((2R,3R,4S,5R)-3,4-dihydroxy-5-(hydroxymethyl)tetrahydrofuran-2-yl)-2-methyl-7H-pyrrolo[2,3-d]pyrimidine-5-carboxamide], for which the “Effect on cell viability” value in the data set on uninfected cells was “No effect on cell viability was seen at any concentration”. The EC50 in the data set on WIV1 is 1010 nM; with WIV1 (setting [13]), about 1000 nM; in [3], 56000 nM; in [8], 380 nM; in the data set with SHC014, 980 nM; in the data set with SHC014 (setting [13]) it was about 1000 nM. In addition, the EC50 in data set [12] (HAE cells donor code yellow, 8 point dose-response curve, read-out: EC50) was determined as 940 nM; in data set [12] (Severe acute respiratory syndrome coronavirus 2, Epithelial cell, read-out: average EC50, SARS-CoV-2 replication) it was 900 nM; in data set [12] (Severe acute respiratory syndrome coronavirus 2, HAE, HAE cells donor code blue, 5 point dose-response curve, read-out: EC50), 550 nM; in data set [12] (Severe acute respiratory syndrome coronavirus 2, HAE, HAE cells donor code purple, 5 point dose-response curve, read-out: EC50), 380 nM; in [12] (Severe acute respiratory syndrome coronavirus 2, HAE, HAE cells donor code yellow, 4 point dose-response curve, read-out: EC50), 310 nM; in [12] (Severe acute respiratory syndrome coronavirus 2, HAE, HAE cells donor code yellow, 5 point dose-response curve, read-out: EC50), 160 nM. The EC50 is 350 nM in [12] (Severe acute respiratory syndrome coronavirus 2, HAE, HAE cells donor code yellow, 7 point dose-response curve, read-out: EC50); 1100 nM in data set [12] (Severe acute respiratory syndrome coronavirus 2, HAE, HAE cells donor code yellow, 8 point dose-response curve, read-out: EC50); 540 nM in data set [12] (Severe acute respiratory syndrome coronavirus 2, HAE, mean of the HAE cell determinations, read-out: Mean SARS-CoV-2 EC50); 540 nM in data set [12] (mean of the HAE cell determinations, read-out: Mean SARS-CoV-2 EC50). The compound also came in with a Kp in “in vivo” of about 20. In addition, the Kp at 8 h in the data set “in vivo” was about 12. Also, the values for the concentration at 1 h in “in vivo” (setting [14]) and in the data set “in vivo” (setting [15]) were 41.8 ng/mL and 32.5 ng/mL, respectively. Further, the concentration at 3 h in the data set “in vivo” (setting [14]) is 18 ng/mL; in “in vivo” (setting [15]), 18.5 ng/mL. Also, the concentration at 8 h in the data set “in vivo” (setting [14]) was 13.3 ng/mL; in the data set “in vivo” (setting [15]), 11.9 ng/mL. In “Oral GLP toxicology”, the toxicology profile result is “favorable toxicology profile”. The CC50 at 3 days in [2] and in data set [11] was over 100000 nM each time. In addition, the “SI: Selectivity Index (CC50/EC50)” value in data set [3] (Neutral Red in Vero E6 cells) was over 1.8. Moreover, the “average Cq, virus genome in lungs (qPCR)” value with SARS-CoV-2 [4] (started 4-6 h after challenge, vehicle Cq 23) was 22. Besides, the “effect on virus genome levels in lungs / efficacy” value in the data set on SARS-CoV-2 [4] is “did not alter the virus genome levels detected in lungs; also recorded: not effective at inhibiting SARS-CoV-2”. The “Cq of one male mouse with lower than expected virus genome loads” value in the data set with SARS-CoV-2 [4] (likely failure of challenge or RNA recovery) is 38. In data set [5], the generally well-tolerated dose entry is “up to 2400 mg”. Further, the “Lung tissue Compound 1 concentration, Middle lobe” value in [6] (setting [16]) is 1323 pmol/g and 988 pmol/g and 1061 pmol/g; in [6] (5 mg Compound 1 aerosol, 8 hr post-dose) it was 73 pmol/g and 137 pmol/g and 99 pmol/g. For the same compound, the “Lung tissue Compound 1 concentration, PC lobe” value in [6] (setting [16]) was 986 pmol/g and 673 pmol/g and 430 pmol/g. The “Lung tissue Compound 1 concentration, Superior lobe” value was 1867 pmol/g and 1219 pmol/g and 1212 pmol/g in [6] (setting [16]); 398 pmol/g and 167 pmol/g and 305 pmol/g in data set [6] (setting [17]). Moreover, the “Lung tissue Compound 1 concentration, Inferior lobe” value in data set [6] (setting [17]) is 209 pmol/g and 93 pmol/g and 110 pmol/g. Also, in data set [6] (setting [17]), the “Lung tissue Compound 1 concentration, Left lobe” value was 106 pmol/g and 116 pmol/g and 140 pmol/g. Moreover, the “Plasma Compound 1 Concentration” value was 39.1 ng/mL and 53.7 ng/mL in data set [6] (1 hr post-dose); 20.8 ng/mL and 14.8 ng/mL in data set [6] (3 hr post-dose); 15.4 ng/mL and 12.6 ng/mL in data set [6] (8 hr post-dose). In addition, in [7], the “clinical signs of irritation or intolerability” value was “No clinical signs of irritation or intolerability”. For the same compound, in data set [9], the genotoxicity / mitotoxicity result was “not genotoxic or mitotoxic”. The EC90 in [10] is 2100 nM.

With `NC(=O)c1cn([C@@H]2O[C@H](CO)[C@@H](O)[C@H]2O)c2ncnc(N)c12` [Sangivamycin, reference compound], the CC50 at 3 days in data set [2] came to 120 nM; in data set [11] it was 10 nM. Also, the “SI: Selectivity Index (CC50/EC50)” value in data set [3] (Neutral Red in Vero E6 cells) came to 1.9. Also, in data set [3] (Neutral Red in Vero E6 cells, day 3 post-infection), the EC50 worked out at 7 nM. Further, the EC90 in [10] is 120 nM.

The values are drawn from patent US20240207299A1, “PYRROLOPYRIMIDINE NUCLEOSIDES FOR TREATING OR PREVENTING A SARS-COV-2 INFECTION” (Chimerix, Inc., priority 2021, published 2024).
